The values below are quoted from earlier work in patent publication US20250009664A1, “DOSAGE FORM FOR INTRA-[…] INJECTION […] USE IN THE TREATMENT OF CRYSTAL-AND NON-CRYSTAL […] IN[…]” (priority 2021, published 2025).

For this series the following is noted: literature.

In the case of `COc1cc2c(c(OC)c1OC)-c1ccc(OC)c(=O)cc1[C@@H](NC(C)=O)CC2` [colchicine, N-[(7S)-1,2,3,10-tetramethoxy-9-oxo-6,7-dihydro-5H-benzo[a]heptalen-7-yl]acetamide], the lethal dose was 0.8 mg/kg and the toxicity limit was 0.1 mg/kg.
